By IC50 is commonly meant the concentration needed to halve the response being measured.

These results are taken from publication PMC7913291, “Synthesis and Anti-Hepatocarcinoma Effect of Amino Acid Derivatives of Pyxinol and Ocotillol” (Molecules, 2021).

Read-outs that look alike come from different tables or passages of the source.

Data set [1] deals with TNF-α. The data set can be described thus: Serum TNF-α level in H22 tumor-bearing mice. The class given is in vivo, Kunming mice. The note with it: mean ± SD. How it is done:
(§1) Cyclophosphamide (CTX), used as the positive drug, was purchased from Sigma (St. Lousis, MO, USA. Detecting kits for IL-2, TNF-α, VEGF, AST, ALT, CRE and BUN were purchased from Nanjing Jiancheng Biotechnology Co. (Nanjing, China).
(§2) 24 h after the last administration, the whole blood was collected from the orbit. Serum was obtained from whole blood by centrifugation (3500 rpm, 15 min, 4 °C) and stored at −20 °C. The levels of IL-2, TNF-α, VEGF, AST, ALT, BUN and CRE in serum were determined in accordance with the procedures described in commercial kit instructions.

Data set [2] deals with HepG2 cells. The data set can be described thus: Cytotoxic activity on HepG2 cells (CCK-8 assay). The class given is cell-based. The note with it: Homo sapiens, read-out: IC50 over HepG2 cells. How it is done: Human hepatocellular liver carcinoma cell line (HepG2) were obtained from Institute of Biochemistry and Cell Biology, Academy of Science (Shanghai, China) and were authenticated using the STR profiling method. HepG2 cells were cultured in MDEM (Gibco, Waltham, MA, USA) supplemented with 10% fetal bovine serum (FBS) and 1% penicillin-streptomycin bubbled with 5% CO2-enriched air at a temperature of 37 °C (Thermo Scientific, Waltham, MA, USA). The cytotoxic effect of compounds on HepG2 cells was assessed by using CCK-8 method. Briefly, HepG2 cells were cultured in 96-well plates at a density of 5 × 10^3 cells per well for 24 h. […] Three replicates were performed. The relative cell viability was expressed as percentage relative to the untreated cells. The inhibition ratio was calculated. The IC50 values were calculated using Logistic regression from three independent tests.
For orientation: Tetrazolium dyes change colour on reduction, which living cells bring about.

In data set [3] the test system is VEGF. The data set can be described thus: Serum VEGF level in H22 tumor-bearing mice. Conditions: mean ± SD. The class given is in vivo, Kunming mice. How it is done:
as §1, §2

Data set [4] has as its system IL-2. Put plainly: Serum IL-2 level in H22 tumor-bearing mice. The class given is in vivo, Kunming mice. Conditions: mean ± SD. The procedure:
as §1, §2

The test system of data set [5] is H22 transplanted tumor. The data set can be described thus: Antitumor activity in H22 tumor-bearing mice (tumor weight, volume, inhibition rate, tumor histology). The class given is in vivo, Kunming mice. How it is done: Hepatocellular carcinoma cell line (H22) was purchased from the Cell Bank of Type Culture Collection Committee of Chinese Academy of Sciences (Shanghai, China), and cultured in Dulbecco's modified eagle medium supplemented with 10% fetal calf serum and then cultured at 37 °C in 5% CO2. […] (Changchun, China). All the mice, given food and water ad libitum, were raised in temperature and humidity controlled (23 ± 2 °C, 50 ± 10% humidity) environment under a 12 h light/dark cycle. The mice were acclimatized for at least 1 week before use. The animal experiments were performed in accordance with the guidelines for the Care and Use of Laboratory Animals and approved by the ethics committee of School of Pharmaceutical Sciences, Jilin University, China. H22 cells, resuspended in normal saline with final concentration of 5 × 10^6 cells/mL, were injected into the abdominal cavity of mice under aseptic conditions. After 1 week, ascites tumor cells were extracted and dispersed with physiological saline to a concentration of 1 × 10^7 cells/mL.

Data set [6] can be described thus: Hepatic and renal function (serum ALT, AST, CRE, BUN) in H22 tumor-bearing mice. The procedure:
as §1, §2

The nature of data set [7]: Body weight and organ indexes in H22 tumor-bearing mice. How it is done:
Before administration every day, the tumor size and body weight were measured. When the tumor was larger than 20 mm in diameter, animals were euthanized according to the IACUC proposals.
(§3) Mice were then killed by cervical dislocation after blood collected. The tumor, liver and kidney were rapidly separated, weighted and dissected for histopathological examination.
The liver and kidney indexes were calculated as follows: organ index (mg/g) =average weight of organ/average body weight.

Data set [8] in a line: Histopathological examination of liver and kidney (H&E staining). The note with it: H22 tumor-bearing mice; CTX 20 mg/kg. How it is done:
as §3
The tissue of tumor, liver and kidney from each mouse was quickly fixed in 10% neutral-buffered formalin for histopathology. The H&E staining of H22 solid tumor, liver and kidney tissue were embedded in paraffin and sectioned into sections with a thickness of 5 µm which were conducted following the manufacturer’s instructions in respective kit. Tumor, liver and kidney tissue sections were observed by light microscopy (Leica DM750, Solms, Germany) and recorded by photography (×400).

The conditions of data set [9]: cited from earlier work.
The conditions of data set [10]: cited from earlier work. The source holds these as a separate data set.
Setting [11] is: HepG2, CCK-8, 48 h, mean of three experiments ±SD.
[12] abbreviates: 25 mg/kg intragastrically once a day for 14 days.
The mark [13] stands for this setting: 50 mg/kg intragastrically once a day for 14 days.
Where [14] appears, read: 20 mg/kg intragastrically once a day for 14 days.
Where [15] appears, read: serum, H22 tumor-bearing mice, 20 mg/kg.

Regarding `CC(C)(O)[C@H]1CC[C@@](C)(C2CC[C@]3(C)C2[C@H](O)CC2[C@@]4(C)CC[C@H](OC(=O)C5CCCN5)C(C)(C)C4CC[C@]23C)O1` (stereo partly drawn) [2e, (20S, 24R)-Epoxy-3β-O-(L-prolyl)-dammarane-12β, 25-diol], the TNF-α level is reported as 287.01 ± 39.10 pg/mL in data set [1] (n = 6, 25 mg/kg); 321.97 ± 55.57 pg/mL in [1] (n = 6, 50 mg/kg); 358.35 ± 45.19 pg/mL in data set [1] (n = 6, 100 mg/kg). Further, in data set [2] (setting [11]), the IC50 is 11.3 ± 0.43 µM. Also, the VEGF level in data set [3] (n = 6, 25 mg/kg) is on record as 158.32 ± 15.97 ^##, * pg/mL; in data set [3] (n = 6, 50 mg/kg) it was 127.62 ± 17.46 ^##, ** pg/mL; in [3] (n = 6, 100 mg/kg) it was 114.67 ± 15.42 pg/mL. Further, the IL-2 level in data set [4] (n = 6, 25 mg/kg) is 111.13 ± 13.28 pg/mL; in data set [4] (n = 6, 50 mg/kg) it was 136.86 ± 22.66 pg/mL; in data set [4] (n = 6, 100 mg/kg), 174.11 ± 28.90 pg/mL. Besides, the “Inhibitory Rate (tumor inhibition rate, TIR)” value is 16.20% in data set [5] (setting [12]); 24.76% in data set [5] (setting [13]); 35.32% in data set [5] (100 mg/kg intragastrically once a day for 14 days, listed as Compound 2e, 100 mg/kg); 35.32% in data set [5] (100 mg/kg intragastrically once a day for 14 days, listed as compound 2e, 100 mg/kg). The “Tumor Weight” value worked out at 1.35 ± 0.26 g in data set [5] (setting [12]), 1.21 ± 0.34 g in data set [5] (setting [13]) and 1.04 ± 0.23 g in data set [5] (100 mg/kg intragastrically once a day for 14 days). Besides, in [5] (50, 100 mg/kg, p < 0.05, p < 0.01), the “Effect on tumor volume compared to the model group” value was “significantly reduce”. Further, the ALT in data set [6] (mouse, in vivo, 25 mg/kg) is recorded as 43.62 ± 5.15 ^##, ** IU/L; in [6] (mouse, in vivo, 50 mg/kg), 42.31 ± 5.00 ^##, ** IU/L; in data set [6] (mouse, in vivo, 100 mg/kg), 35.37 ± 3.32 ^##, ** IU/L. For the same compound, the AST in data set [6] (mouse, in vivo, 25 mg/kg) is on record as 42.51 ± 5.22 ^##, ** IU/L; in data set [6] (mouse, in vivo, 50 mg/kg) it was 38.69 ± 6.43 ^##, ** IU/L; in data set [6] (mouse, in vivo, 100 mg/kg), 31.47 ± 4.48 ^#, ** IU/L. The CRE in data set [6] (mouse, in vivo, 25 mg/kg) stood at 31.17 ± 9.03 µmol/L; in data set [6] (mouse, in vivo, 50 mg/kg) it was 28.95 ± 9.16 µmol/L; in data set [6] (mouse, in vivo, 100 mg/kg) it was 26.93 ± 10.60 µmol/L. In addition, the BUN in data set [6] (mouse, in vivo, 50 mg/kg) amounted to 11.06 ± 2.16 mmol/L; in [6] (mouse, in vivo, 100 mg/kg), 10.32 ± 2.77 mmol/L.

In the case of `O=P1(N(CCCl)CCCl)NCCCO1` (stereo not drawn) [Cyclophosphamide, reference compound], in [1] (n = 6, 20 mg/kg), the TNF-α level is 207.47 ± 23.37 ^##, ** pg/mL. Further, the IC50 in [2] (HepG2, 48 h) came to 9.18 ± 0.34 µM. Besides, the VEGF level in [3] (n = 6, 20 mg/kg) is 103.43 ± 14.00 pg/mL. The compound further had an IL-2 level in data set [4] (n = 6, 20 mg/kg) of 110.52 ± 17.54 pg/mL. Further, in data set [7] (setting [14]), the “Body weight D14” value was 32.76 ± 3.14 g, the “Increase of Body Weight” value is listed as 11.56 ± 3.23 g, the “Kidney Index” value came to 13.27 ± 1.96 mg/g and the “Liver Index” value stood at 51.54 ± 7.69 mg/g. The “Body weight D1” value in data set [7] (D1, 20 mg/kg group) is 21.20 ± 1.71 g. In data set [5] (setting [14]), the “Inhibitory Rate (tumor inhibition rate, TIR)” value was found to be 49.69% and the “Tumor Weight” value is on record as 0.81 ± 0.18 g. The “Effect on tumor volume compared to the model group” value in [5] (CTX 20 mg/kg, p < 0.01) is reported as “significantly reduce”. In data set [8], the “Liver and kidney cell morphology (H&E)” value was “many vacuoles and edema”. In data set [6] (setting [15]), the ALT is 50.61 ± 3.22 ^##, ** IU/L; the AST was 53.47 ± 5.04 ^##, ** IU/L; the BUN was 14.23 ± 2.38 ^##, * mmol/L; the CRE is 32.86 ± 7.74 µmol/L.

`CC(C)(O)C1CCC(C)(C2CCC3(C)C2C(O)CC2C4(C)CCC(O)C(C)(C)C4C(O)CC23C)O1` (stereo not drawn) [Ocotillol]: the IC50 in [2] (setting [11]) was found to be 92.7 ± 3.07 µM. Also, in [9] (rat, in vivo), the absorption into blood result is on record as “poor”, the systemic exposure result is reported as “low” and the t1/2 result is given as “long”. In addition, the “plasma protein binding rates” value in data set [10] is “high”.

On to `CC(C)(O)C1CCC(C)(C2CCC3(C)C2C(O)CC2C4(C)CCC(O)C(C)(C)C4CCC23C)O1` (stereo not drawn) [Pyxinol], for which the IC50 in [2] (setting [11]) came out at 74.5 ± 1.09 µM. Also, in [9] (rats), the oral bioavailability entry is reported as “low” and the t1/2 entry is recorded as “short”.
